The text below walks through data of patent US11793748B1, “Pharmaceutical compositions of aspirin for parenteral administration” (GOOD HEALTH, LLC, priority 2019, dated 2023).

Structures are written as SMILES.

Data set [1] can be described thus: Effect of bases on reconstitution time for aspirin in propylene glycol. It counts as physicochemical. To be noted: aspirin 40 mg/mL, with shaking. On the procedure: Solutions of propylene glycol with different bases were prepared by sonicating mixtures of propylene glycol and bases. Aspirin was added to those solutions and shaken in a circular motion.
A short description of data set [2]: Stability of reconstituted aspirin solutions by HPLC. Type of data set: physicochemical. On the procedure: Stability was determined by HPLC analysis using the following parameters:
Mobile Phase: Solution containing 15% acetonitrile and 85% water with 2 g/L of heptanesulfonate sodium. The pH of the solution was adjusted to 3.4.
Injection volume: 10 μl, the concentration of aspirin in sample and standard injections were maintained at about 0.5 mg/mL.
The stability of Trials 3-5 was tested using the HPLC method described above.

The nature of data set [3]: Solubility testing of aspirin in commonly used co-solvents. It counts as physicochemical. To be noted: 120 mg/3 mL; for Reconstitution time for milled API (Approx. 124 μm, BSS Sieve 120 passed): after shaking. On the procedure: The solubility of aspirin was determined using propylene glycol and polyethylene glycol (PEG-300 and PEG-400), which are widely used in intravenous formulations.

For data set [4] the following is noted: solubilization accompanied by aspirin degradation; cited from earlier work.
Data set [5] in a line: Effect of lactose and mannitol combination on reconstitution time. It counts as physicochemical. To be noted: aspirin 80 mg (120 sieve passed). How it is done: A mixture of lactose and mannitol were tried to improve reconstitution time. Diluents were then prepared by dissolving base and sugars in water and followed by addition of PEG 300. The diluent was transferred to a vial containing aspirin, and the vial was shaken in a swirling motion.

For data set [6] the following is noted: bicin, tricin, CAPS, TAPS, HEPES and AMPSO buffers; remained as suspended particles; cited from earlier work.
The nature of data set [7]: Stability of recrystallized aspirin powder. To be noted: for % Assay / % S.A (salicylic acid impurity): 6 months 40° C./75% RH.
Data set [8] is described as follows: Reconstitution time for aspirin-lactose premix. Type of data set: physicochemical. The conditions noted are these: aspirin 80 mg + 160 mg lactose premix (both 120 sieve passed), water 1.5 ml. The text has this: […] The diluent was transferred to a vial containing aspirin triturated with lactose. The mixture was shaken in the vial in a swirling motion.
The nature of data set [9]: Solubility and reconstitution of aspirin in semi-aqueous diluents. It counts as physicochemical. To be noted: aspirin 80 mg (sieve 120 mesh passed), after shaking for 5 minutes. On the procedure: Diluent solutions were prepared by mixing solvent and water. Aspirin was added and the vials were shaken in a swirling motion.
Data set [10] can be described thus: Effect of lactose on reconstitution time in solvent-water mixture. Type of data set: physicochemical. To be noted: aspirin 80 mg, lactose 80 mg. How it is done: Diluent Preparation: Water, lactose, and base were taken in a vial and sonicated until a clear solution is formed. Solvent was then added and mixed for a minute. To these diluents, aspirin was added and shaken in a swirling motion.

Data set [11] is described as follows: Reconstitution trials for micronized aspirin with aqueous solutions containing bases. To be noted: aspirin 5.0 mg/mL; reconstitution with meglumine. It counts as physicochemical. On the procedure:
[…] […] Shaken up and down vigorously to check reconstitution and clarity.
The reconstitution of higher doses of aspirin with aqueous solutions of bases indicate superiority using a combination of meglumine and sodium citrate over same bases used separately.
Therefore, these dilute solutions of the invention are suitable for slow infusion for a longer time. For example, the infusion can be made over 30 minutes to about 100 minutes with an infusion rate of about 3 mL/min to 0.8 mL/min. The rate of infusion of the invention can depend on the clinical conditions of patients, and can be modified as necessary. In certain cases, a bolus injection of concentrated aspirin solutions may be required. The aspirin solution (50 mg/mL) of the invention can be given as a bolus injection (e.g., 10 mL within 2-5 minutes).

Where [12] appears, read: Aspirin API, not reconstituted (reference line of stability tables).
Where [13] appears, read: Lysine 40 mg, lactose 80 mg + mannitol 80 mg, water 1.2 ml + PEG-300 1.8 ml.
Setting [14] is: Meglumine 40 mg, lactose 20 mg + mannitol 60 mg, distilled water 1.2 ml + PEG 300 1.8 ml.
[15] abbreviates: Meglumine 40 mg, lactose 20 mg + mannitol 60 mg, distilled water 1.5 ml + PEG 300 1.5 ml.
[16] abbreviates: Meglumine 40 mg, lactose 20 mg + mannitol 60 mg, distilled water 1.8 ml + PEG 300 1.2 ml.
Setting [17] is: Tris 40 mg, lactose 20 mg + mannitol 60 mg, distilled water 1.2 ml + PEG 300 1.8 ml.
[18] abbreviates: Tris 40 mg, lactose 20 mg + mannitol 60 mg, distilled water 1.5 ml + PEG 300 1.5 ml.
Setting [19] is: Tris 40 mg, lactose 20 mg + mannitol 60 mg, distilled water 1.8 ml + PEG 300 1.2 ml.
Where [20] appears, read: Tris 40 mg, lactose 80 mg + mannitol 80 mg, water 1.2 ml + PEG-300 1.8 ml.
The mark [21] stands for this setting: Tris 40 mg, lactose 80 mg + mannitol 80 mg, water 1.5 ml + PEG-300 1.5 ml.
The mark [22] stands for this setting: Tris 40 mg, lactose 80 mg + mannitol 80 mg, water 1.8 ml + PEG-300 1.2 ml.
Where [23] appears, read: Lysine 40 mg, water 1.8 ml + PEG 300 1.2 ml.
The mark [24] stands for this setting: Lysine 40 mg, water 1.8 ml + PEG 400 1.2 ml.
Setting [25] is: Tris 40 mg, water 1.8 ml + PEG 300 1.2 ml.
The mark [26] stands for this setting: Tris 40 mg, water 1.8 ml + PEG 400 1.2 ml.

Consider `CC(=O)Oc1ccccc1C(=O)O` [Aspirin, aspirin], for which the “Reconstitution time for milled API (Approx. 124 μm, BSS Sieve 120 passed)” value in [1] (propylene glycol with 10 mg/mL Arginine) is given as 3 minutes with shaking; in data set [1] (propylene glycol with 10 mg/mL Lysine), 1.40 minutes with shaking; in [1] (propylene glycol with 10 mg/mL Meglumine), 2 minutes with shaking; in data set [1] (propylene glycol with 10 mg/mL Tromethamine) it was 1.45 minutes with shaking; in data set [3] (PEG-300), “Soluble in 3 minutes,”; in [3] (PEG-400), “Soluble in 3 minutes,”. Besides, the “Reconstitution time for milled API (Approx. 124 μm, BSS Sieve 120 passed)” value in data set [3] (propylene glycol) is recorded as “Soluble in 3 minutes,”. For the same compound, the “% Salicylic acid” value in data set [2] (setting [12]) is reported as 0.24%. The compound further came in with an Aspirin peak purity in data set [2] (setting [12]) of 99.76%. Moreover, the “period for which reconstituted aspirin was stable” value in data set [2] (higher concentration (50 mg/mL), aqueous solution containing both meglumine and sodium citrate, 2-8° C.) is reported as “about 5 hours”. Further, the “Reconstitution time for unmilled Aspirin” value in data set [3] (PEG-300), in data set [3] (PEG-400) and in data set [3] (propylene glycol) was “Not easily soluble,” each time. Moreover, the “solubility in aqueous alkali hydroxide solutions and aqueous bicarbonate solutions” value in [4] is given as “soluble”. The Observation result is “hazy” in data set [5] (setting [13]); “hazy” in data set [5] (setting [14]); “Clear” in data set [5] (setting [15]); “Clear” in data set [5] (setting [16]); “Clear” in [5] (setting [17]); “Clear” in data set [5] (setting [18]). Moreover, the Observation entry in [5] (setting [19]) was “Clear”; in data set [5] (setting [20]), “hazy”; in [5] (setting [21]) it was “Clear”; in [5] (setting [22]), “Clear”; in [8] (Tris 30 mg), “Clear”; in data set [8] (Tris 35 mg), “Clear”. Moreover, the Observation entry in data set [8] (Tris 40 mg) is given as “Clear”; in [8] (Tris 50 mg), “hazy”; in [9] (1.8 mL PEG 300 + 1.2 mL water) it was “Turbid with particles”; in data set [9] (1.8 mL PEG 400 + 1.2 mL water), “Turbid with particles”; in data set [9] (1.8 mL propylene glycol + 1.2 mL water) it was “Turbid with particles”; in [10] (setting [23]), “Clear”. The Observation entry in data set [10] (setting [24]), in data set [10] (setting [25]) and in [10] (setting [26]) was “Clear” throughout. In addition, the Reconstitution time is recorded as 2.00 min in data set [5] (setting [13]); 2.00 min in data set [5] (setting [14]); 2.20 min in data set [5] (setting [15]); 2.30 min in data set [5] (setting [16]); 2.00 min in data set [5] (setting [17]); 2.10 min in [5] (setting [18]). Further, the Reconstitution time in data set [5] (setting [19]) is given as 2.30 min; in data set [5] (setting [20]), 2.10 min; in [5] (setting [21]), 2.25 min; in data set [5] (setting [22]), 2.10 min; in data set [8] (Tris 30 mg), 2.00 min; in data set [8] (Tris 35 mg), 1.25 min. For the same compound, the Reconstitution time is reported as 1.00 min in data set [8] (Tris 40 mg); 1.40 min in [8] (Tris 50 mg); 3.15 min in data set [10] (setting [23]); 3.50 min in data set [10] (setting [24]); 3.20 min in data set [10] (setting [25]); 2.40 min in [10] (setting [26]). The “solubility in aqueous buffers” value in [6] was “poor”. Moreover, the “period stable at room temperature” value in data set [7] (room temperature, inferred from accelerated stability data) is reported as “at least 2 years”. In data set [11], the “time to clear solution on reconstitution” value is ≤ 2 min.

On to `CC(=O)Oc1ccccc1C(=O)O` [Recrystallization from Acetone], for which, in data set [7] (recrystallized powder), the “% Assay” value is reported as 97.20% and the “% S.A (salicylic acid impurity)” value is 0.505%.

As to `CC(=O)Oc1ccccc1C(=O)O` [Recrystallization from Ethanol], in data set [7] (recrystallized powder), the “% Assay” value turned out to be 97.72% and the “% S.A (salicylic acid impurity)” value came out at 0.452%. Besides, in data set [7] (recrystallized powder, accelerated conditions (6 months 40° C./75% RH)), the “stability at accelerated conditions” value was “stable”.

In the case of `CC(=O)Oc1ccccc1C(=O)O` [Recrystallization from Isopropanol], the “% Assay” value in [7] (recrystallized powder) was determined as 99.35%.
